Test results: paper PMC4193777 (PLoS ONE, 2014)

Tests used:
FPR2 = test: Calcium mobilization in undifferentiated HL-60 cells overexpressing FPR2; format: cell-based; settings: Fura-2; F2Pal10 10 nM
Source text: The procedures used to obtain stable expression of FPR1 and FPR2 in undifferentiated HL-60 cells have been previously described. To prevent possible auto-differentiation due to the accumulation of differentiation factors in the culture medium, cells were passed twice a week before they reached a density of 2×10^6 cells/ml. At each passage, an aliquot of the cell culture was centrifuged, the supernatant was discarded and the cell pellet was resuspended in fresh RPMI 1640 medium containing FCS (10%), PEST (1%), and G418 (1 mg/ml).
Neutrophils or transfected HL-60 cells at a density of 5×10^7 cells/ml in KRG containing 0.1% BSA were loaded with 5 µM FURA 2-AM for 30 minutes in the dark at room temperature. […] Calcium measurements were carried out in a PerkinElmer fluorescence spectrophotometer (LC50), with excitation wavelengths of 340 nm and 380 nm, an emission wavelength of 509 nm, and slit widths of 5 nm and 10 nm, respectively. The transient rise in intracellular calcium is presented as the ratio of fluorescence intensities (340 nm: 380 nm) detected. […] The relative calcium level was expressed as a ratio between Fluo-3 and Fura Red (FL-1/FL-3) fluorescence over time.
Figure 1 The F2Pal10 pepducin specifically activates FPR2. […] The release of superoxide anions was recorded continuously. […] Abscissa, time of study (sec); ordinate, fluorescence (arbitrary units).

desensitized FPR2 = test: PAF-induced cross-talk reactivation of desensitized FPR2 (superoxide); format: cell-based, human
Description: Human peripheral blood neutrophils were isolated from buffy coats from healthy blood donors using dextran sedimentation and Ficoll-Paque gradient centrifugation as described. The remaining erythrocytes were disrupted by hypotonic lysis, the neutrophils were washed twice, resuspended in KRG, and stored on melting ice until use. This isolation procedure permits cells to be purified with minimal granule mobilization.
The NADPH-oxidase activity was determined using isoluminol-enhanced chemiluminescence (CL), [27]. The CL activity was measured in a six-channel Biolumat LB 9505 (Berthold Co., Wildbad, Germany), using disposable 4-ml polypropylene tubes with a 900 µl reaction mixture containing 10^5 cells, isoluminol (2×10^−5 M) and HRP (2 U). The tubes were equilibrated in the Biolumat for 5 min at 37°C, after which the stimulus (100 µl) was added and the light emission was recorded continuously. Receptor desensitized cells were defined as naïve (non-desensitized) cells that had first been stimulated with a receptor specific agonist and returned to baseline after the resulting release of superoxide before a second stimulation. When reactivation experiments were performed with antagonists, the antagonists were added to the CL reaction mixture 1 min before the second stimulation. For studies with signaling inhibitors, cells were incubated with inhibitors at 37°C for 15 min before agonist addition. Control cells received no treatment but were incubated under the same conditions.
Figure 3 PAF- or ATP-stimulation induces reactivation of desensitized FPR2. […] A representative experiment is shown and the time point for addition of FPR2 agonists is indicated by the first arrow, the time point for PAF stimulation (100 nM final concentration) with the second arrow. The control PAF response induced in naïve (non-desensitized) neutrophils is shown for comparison (dotted line). Abscissa: Time of study (min); ordinate: Superoxide production (Mcpm). B. Naïve neutrophils were first desensitized with F2Pal10 (F2Pal10des., 500 nM final concentration) and subsequently stimulated with PAF (100 nM final concentration; time point for PAF addition is indicated by an arrow). The FPR2 specific inhibitor PBP10 (1 µM) was added 1 min prior to PAF stimulation (dashed line) and the release of superoxide anions was recorded continuously. The PAF responses induced in naïve cells (solid line), as well as in F2Pal10-desensitized cells receiving no PBP10 (dotted line), are shown for comparison. Abscissa: Time of study (min); ordinate: Superoxide production (Mcpm). C. Effect of calyculin A on receptor cross-talk induced FPR2 reactivation. Cells desensitized with F2Pal10 (F2Pal10des.) were incubated with the phosphatase inhibitor calyculin A (60 nM; solid line) or buffer as control (dashed line) for 10 min at 37°C prior to PAF stimulation (100 nM). The release of superoxide anions was recorded continuously. Abscissa: Time of study (min); ordinate: Superoxide production (Mcpm). […] Abscissa: Time of study (min); ordinate: Superoxide production (Mcpm). […] The results are given as peak values of superoxide production following addition of ATPγS (mean+SEM; n = 3).
Figure 4 More pronounced reactivation was induced by PAF in neutrophils desensitized by the pepducin F2Pal10. […] The results are given as peak values of superoxide production from three separate experiments for the first stimulation with FPR2 agonists (mean+SEM, n = 3). […]

SMILES: CSCC[C@H](NC(=O)[C@@H](NC(=O)[C@H](CCSC)NC(=O)[C@H](Cc1ccc(O)cc1)NC(=O)[C@H](CCCCN)NC(=O)[C@@H](N)Cc1c[nH]c2ccccc12)C(C)C)C(N)=O [WKYMVM]
- intracellular calcium response, FPR2 HL-60 cells (FPR2): time course of the response was very similar
- type of agonism, cross-talk reactivation (desensitized FPR2; PAF- and ATP-induced cross-talk reactivation of desensitized FPR2): partial agonist
- priming of PAF response in desensitized neutrophils (desensitized FPR2; desensitizing agent F2Pal10 500 nM or WKYMVM 40 nM, PAF 100 nM): primed in their response to PAF
